HELM strings list units from the 5' end as sugar, base in round brackets, then linkage (d deoxyribose, r ribose, m 2'-O-methyl, p phosphodiester). Strings are as the collection lists them; they lack the last nucleoside at the 3' end of the tested compound. [moe] = 2'-O-(2-methoxyethyl) (MOE); [sp] = phosphorothioate linkage; [m5C] = 5-methylcytosine
Target: LRRK2
Assay: mouse, dose not given
Conditions: ASO

Row | Substance | 3 h FOB score
1 | RNA1{[moe](G)[sp].[moe]([m5C])p.[moe](T)p.[moe](G)p.[moe]([m5C])[sp].d(T)[sp].d([m5C])[sp].d(A)[sp].d(T)[sp].d(A)[sp].d(T)[sp].d([m5C])[sp].d(T)[sp].d(A)[sp].d(A)[sp].[moe](A)p.[moe](G)p.[moe](A)[sp].[moe]([m5C])}$$$$ (last 3' nucleoside missing) | 0 score 0-7
2 | RNA1{[moe](G)[sp].[moe]([m5C])p.[moe]([m5C])p.[moe]([m5C])p.[moe](A)[sp].d(G)[sp].d([m5C])[sp].d([m5C])[sp].d(A)[sp].d(A)[sp].d(A)[sp].d(T)[sp].d(G)[sp].d([m5C])[sp].d(T)[sp].[moe](T)p.[moe](G)p.[moe]([m5C])[sp].[moe](A)}$$$$ (last 3' nucleoside missing) | 0 score 0-7
3 | RNA1{[moe](T)[sp].[moe](T)p.[moe]([m5C])[sp].[moe](A)[sp].[moe](T)[sp].d(A)[sp].d(G)[sp].d([m5C])[sp].d(T)[sp].d(T)[sp].d([m5C])[sp].d([m5C])[sp].d(A)[sp].d([m5C])[sp].d([m5C])[sp].[moe](A)[sp].[moe]([m5C])p.[moe](A)[sp].[moe](A)}$$$$ (last 3' nucleoside missing) | 5 score 0-7
4 | RNA1{[moe](T)[sp].[moe](T)p.[moe]([m5C])[sp].[moe](A)[sp].[moe](T)[sp].d(T)[sp].d([m5C])[sp].d(G)[sp].d(G)[sp].d(T)[sp].d(T)[sp].d(A)[sp].d(T)[sp].d(A)[sp].d(A)[sp].[moe](G)[sp].[moe](G)p.[moe]([m5C])[sp].[moe](A)}$$$$ (last 3' nucleoside missing) | 6 score 0-7
5 | RNA1{[moe](T)[sp].[moe](G)p.[moe]([m5C])[sp].[moe](T)[sp].[moe](G)[sp].d([m5C])[sp].d(T)[sp].d([m5C])[sp].d(A)[sp].d(T)[sp].d(A)[sp].d(T)[sp].d([m5C])[sp].d(T)[sp].d(A)[sp].[moe](A)[sp].[moe](A)p.[moe](G)[sp].[moe](A)}$$$$ (last 3' nucleoside missing) | 0 score 0-7
6 | RNA1{[moe](G)[sp].[moe]([m5C])p.[moe]([m5C])[sp].[moe](A)[sp].[moe]([m5C])[sp].d(T)[sp].d([m5C])[sp].d(A)[sp].d(T)[sp].d(G)[sp].d(A)[sp].d(G)[sp].d(G)[sp].d(A)[sp].d([m5C])[sp].[moe](T)[sp].[moe](T)p.[moe]([m5C])[sp].[moe]([m5C])}$$$$ (last 3' nucleoside missing) | 6 score 0-7
7 | RNA1{[moe](A)[sp].[moe]([m5C])p.[moe](G)[sp].[moe]([m5C])[sp].[moe](A)[sp].d([m5C])[sp].d(T)[sp].d(T)[sp].d(A)[sp].d(A)[sp].d([m5C])[sp].d(A)[sp].d(A)[sp].d(T)[sp].d(A)[sp].[moe](T)[sp].[moe]([m5C])p.[moe](A)[sp].[moe](T)}$$$$ (last 3' nucleoside missing) | 1 score 0-7
8 | RNA1{[moe](A)[sp].[moe](T)p.[moe](G)[sp].[moe](A)[sp].[moe](G)[sp].d(T)[sp].d(G)[sp].d([m5C])[sp].d(A)[sp].d(T)[sp].d(G)[sp].d(G)[sp].d([m5C])[sp].d(A)[sp].d(T)[sp].[moe]([m5C])[sp].[moe](A)p.[moe](A)[sp].[moe](A)}$$$$ (last 3' nucleoside missing) | 6 score 0-7
9 | RNA1{[moe](A)[sp].[moe](T)p.[moe](T)[sp].[moe](G)[sp].[moe]([m5C])[sp].d([m5C])[sp].d(A)[sp].d([m5C])[sp].d(T)[sp].d([m5C])[sp].d(A)[sp].d(T)[sp].d(G)[sp].d(A)[sp].d(G)[sp].[moe](G)[sp].[moe](A)p.[moe]([m5C])[sp].[moe](T)}$$$$ (last 3' nucleoside missing) | 4 score 0-7
10 | RNA1{[moe](A)[sp].[moe](G)p.[moe](T)p.[moe](T)p.[moe](T)[sp].d([m5C])[sp].d(A)[sp].d(T)[sp].d(T)[sp].d([m5C])[sp].d(G)[sp].d(G)[sp].d(T)[sp].d(T)[sp].d(A)[sp].[moe](T)p.[moe](A)p.[moe](A)[sp].[moe](G)}$$$$ (last 3' nucleoside missing) | 7 score 0-7
11 | RNA1{[moe](T)[sp].[moe](T)p.[moe]([m5C])p.[moe](A)p.[moe](G)[sp].d(T)[sp].d(T)[sp].d([m5C])[sp].d([m5C])[sp].d(T)[sp].d(T)[sp].d([m5C])[sp].d(A)[sp].d(G)[sp].d(T)[sp].[moe]([m5C])p.[moe](T)p.[moe]([m5C])[sp].[moe](A)}$$$$ (last 3' nucleoside missing) | 4 score 0-7
12 | RNA1{[moe](A)[sp].[moe](A)p.[moe](T)[sp].[moe](G)[sp].[moe](A)[sp].d(G)[sp].d(T)[sp].d(G)[sp].d([m5C])[sp].d(A)[sp].d(T)[sp].d(G)[sp].d(G)[sp].d([m5C])[sp].d(A)[sp].[moe](T)[sp].[moe]([m5C])p.[moe](A)[sp].[moe](A)}$$$$ (last 3' nucleoside missing) | 3 score 0-7
13 | RNA1{[moe](G)[sp].[moe](A)p.[moe](G)[sp].[moe](T)[sp].[moe](G)[sp].d([m5C])[sp].d(A)[sp].d(T)[sp].d(G)[sp].d(G)[sp].d([m5C])[sp].d(A)[sp].d(T)[sp].d([m5C])[sp].d(A)[sp].[moe](A)[sp].[moe](A)p.[moe](A)[sp].[moe](A)}$$$$ (last 3' nucleoside missing) | 2 score 0-7
14 | RNA1{[moe](A)[sp].[moe](G)p.[moe](T)p.[moe](G)p.[moe]([m5C])[sp].d(A)[sp].d(T)[sp].d(G)[sp].d(G)[sp].d([m5C])[sp].d(A)[sp].d(T)[sp].d([m5C])[sp].d(A)[sp].d(A)[sp].[moe](A)p.[moe](A)p.[moe](A)[sp].[moe](T)}$$$$ (last 3' nucleoside missing) | 1 score 0-7
15 | RNA1{[moe](A)[sp].[moe](T)p.[moe](G)p.[moe]([m5C])p.[moe](A)[sp].d(G)[sp].d(T)[sp].d(T)[sp].d(T)[sp].d([m5C])[sp].d(T)[sp].d([m5C])[sp].d(T)[sp].d(A)[sp].d([m5C])[sp].[moe](T)p.[moe]([m5C])p.[moe](T)[sp].[moe](A)}$$$$ (last 3' nucleoside missing) | 0 score 0-7
16 | RNA1{[moe](G)[sp].[moe]([m5C])p.[moe](A)[sp].[moe](A)[sp].[moe](G)[sp].d(T)[sp].d([m5C])[sp].d([m5C])[sp].d(A)[sp].d(A)[sp].d(A)[sp].d(T)[sp].d(G)[sp].d(T)[sp].d(G)[sp].[moe](T)[sp].[moe]([m5C])p.[moe](A)[sp].[moe](A)}$$$$ (last 3' nucleoside missing) | 6 score 0-7
17 | RNA1{[moe]([m5C])[sp].[moe](A)p.[moe](T)[sp].[moe](T)[sp].[moe]([m5C])[sp].d(G)[sp].d(G)[sp].d(T)[sp].d(T)[sp].d(A)[sp].d(T)[sp].d(A)[sp].d(A)[sp].d(G)[sp].d(G)[sp].[moe]([m5C])[sp].[moe](A)p.[moe]([m5C])[sp].[moe](A)}$$$$ (last 3' nucleoside missing) | 7 score 0-7
18 | RNA1{[moe]([m5C])[sp].[moe](G)p.[moe]([m5C])p.[moe](A)p.[moe]([m5C])[sp].d(T)[sp].d(T)[sp].d(A)[sp].d(A)[sp].d([m5C])[sp].d(A)[sp].d(A)[sp].d(T)[sp].d(A)[sp].d(T)[sp].[moe]([m5C])p.[moe](A)p.[moe](T)[sp].[moe](A)}$$$$ (last 3' nucleoside missing) | 0 score 0-7

— the OligoGym collection
